Laboratory results reported in the supplement of paper PMC13207355.

How the values were obtained:
Details in all cases: exposure time: 72 h
[1] = test system: E57 (patient-derived glioblastoma stem cells of mesenchymal subtype); assay: phenotypic distance (Euclidean, principal components) from DMSO controls (arbitrary units); higher = stronger morphological change
[2] = test system: E28 (patient-derived glioblastoma stem cells of classical subtype); assay: as above
[3] = test system: E21 (patient-derived glioblastoma stem cells of mesenchymal subtype); assay: as above
[4] = test system: FT3469 (normal neural stem cell line); assay: as above
[5] = test system: E34 (patient-derived glioblastoma stem cells of proneural subtype); assay: as above
[6] = test system: E13 (patient-derived glioblastoma stem cells of classical subtype); assay: as above
[7] = test system: E57; assay: surviving fraction (nuclei count normalised to DMSO); higher = more cells surviving (less toxic)
[8] = test system: E28; assay: as above
[9] = test system: E21; assay: as above
[10] = test system: FT3469; assay: as above
[11] = test system: E34; assay: as above
[12] = test system: E13; assay: as above
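Wherever phenotypic distance (Euclidean, principal components) from DMSO controls is given: cell Painting imaging in 384-well plates, CellProfiler features reduced to at least 20 principal components, Euclidean distance versus same-plate DMSO vehicle wells (0.1% v/v), median over six images per well.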
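Wherever surviving fraction (nuclei count normalised to DMSO) is given: nuclei counted by high-content imaging of Hoechst-stained cells in laminin-coated 384-well plates, relative to 0.1% DMSO vehicle wells, with staurosporine as cell-death control.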

Cc1ccc(NC(=O)c2ccc3c(c2)OCCO3)cc1NC(=O)c1ccc2nc(OCCN3CCCC3)ccc2c1
Details	phenotypic distance	surviving fraction
[1], 4.1 nM	2.44	–
[1], 4.11523 nM	2.93	–
[1], 12.3 nM	3.38	–
[1], 12.34567901 nM	3.54	–
[1], 37 nM	3.19	–
[1], 37.037 nM	3.43	–
[1], 111.1 nM	3.22	–
[1], 111.1111111 nM	3.19	–
[1], 333.3 nM	3.67	–
[1], 333.333 nM	3.36	–
[1], 1000 nM	3.79	–
[1], 3000 nM	3.67	–
[2], 4.1 nM	2.24	–
[2], 4.11523 nM	2.33	–
[2], 12.3 nM	3.06	–
[2], 12.34567901 nM	2.58	–
[2], 37 nM	3.23	–
[2], 37.037 nM	2.95	–
[2], 111.1 nM	3.14	–
[2], 111.1111111 nM	2.92	–
[2], 333.3 nM	2.79	–
[2], 333.333 nM	3.14	–
[2], 1000 nM	2.41	–
[2], 3000 nM	2.42	–
[3], 4.1 nM	1.96	–
[3], 4.11523 nM	2.3	–
[3], 12.3 nM	3.3	–
[3], 12.34567901 nM	2.79	–
[3], 37 nM	4.37	–
[3], 37.037 nM	3.31	–
[3], 111.1 nM	5.55	–
[3], 111.1111111 nM	4.4	–
[3], 333.3 nM	4.63	–
[3], 333.333 nM	5.16	–
[3], 1000 nM	4.03	–
[3], 3000 nM	3.92	–
[4], 4.1 nM	2.71	–
[4], 4.11523 nM	2.72	–
[4], 12.3 nM	3.04	–
[4], 12.34567901 nM	2.97	–
[4], 37 nM	3.5	–
[4], 37.037 nM	3.59	–
[4], 111.1 nM	3.07	–
[4], 111.1111111 nM	3.24	–
[4], 333.3 nM	4.42	–
[4], 333.333 nM	3.16	–
[4], 1000 nM	2.96	–
[4], 3000 nM	3.35	–
[5], 4.1 nM	1.52	–
[5], 4.11523 nM	2.43	–
[5], 12.3 nM	2.63	–
[5], 12.34567901 nM	1.82	–
[5], 37 nM	2.02	–
[5], 37.037 nM	2.96	–
[5], 111.1 nM	2.75	–
[5], 111.1111111 nM	2.28	–
[5], 333.3 nM	3	–
[5], 333.333 nM	3.8	–
[5], 1000 nM	2.97	–
[5], 3000 nM	3.82	–
[6], 4.1 nM	2.33	–
[6], 4.11523 nM	2.3	–
[6], 12.3 nM	2.75	–
[6], 12.34567901 nM	2.91	–
[6], 37 nM	2.97	–
[6], 37.037 nM	2.96	–
[6], 111.1 nM	2.97	–
[6], 111.1111111 nM	2.53	–
[6], 333.3 nM	3.19	–
[6], 333.333 nM	3.19	–
[6], 1000 nM	4.14	–
[6], 3000 nM	4.93	–
[7], 4.1 nM	–	0.335
[7], 4.11523 nM	–	0.321
[7], 12.3 nM	–	0.23
[7], 12.34567901 nM	–	0.214
[7], 37 nM	–	0.296
[7], 37.037 nM	–	0.268
[7], 111.1 nM	–	0.215
[7], 111.1111111 nM	–	0.277
[7], 333.3 nM	–	0.209
[7], 333.333 nM	–	0.246
[7], 1000 nM	–	0.199
[7], 3000 nM	–	0.17
[8], 4.1 nM	–	0.547
[8], 4.11523 nM	–	0.493
[8], 12.3 nM	–	0.385
[8], 12.34567901 nM	–	0.432
[8], 37 nM	–	0.366
[8], 37.037 nM	–	0.346
[8], 111.1 nM	–	0.309
[8], 111.1111111 nM	–	0.32
[8], 333.3 nM	–	0.309
[8], 333.333 nM	–	0.242
[8], 1000 nM	–	0.317
[8], 3000 nM	–	0.285
[9], 4.1 nM	–	0.572
[9], 4.11523 nM	–	0.511
[9], 12.3 nM	–	0.385
[9], 12.34567901 nM	–	0.434
[9], 37 nM	–	0.402
[9], 37.037 nM	–	0.406
[9], 111.1 nM	–	0.276
[9], 111.1111111 nM	–	0.306
[9], 333.3 nM	–	0.28
[9], 333.333 nM	–	0.23
[9], 1000 nM	–	0.235
[9], 3000 nM	–	0.159
[10], 4.1 nM	–	0.613
[10], 4.11523 nM	–	0.62
[10], 12.3 nM	–	0.72
[10], 12.34567901 nM	–	0.67
[10], 37 nM	–	0.636
[10], 37.037 nM	–	0.618
[10], 111.1 nM	–	0.608
[10], 111.1111111 nM	–	0.667
[10], 333.3 nM	–	0.674
[10], 333.333 nM	–	0.615
[10], 1000 nM	–	0.602
[10], 3000 nM	–	0.484
[11], 4.1 nM	–	0.581
[11], 4.11523 nM	–	0.432
[11], 12.3 nM	–	0.436
[11], 12.34567901 nM	–	0.574
[11], 37 nM	–	0.548
[11], 37.037 nM	–	0.385
[11], 111.1 nM	–	0.505
[11], 111.1111111 nM	–	0.555
[11], 333.3 nM	–	0.486
[11], 333.333 nM	–	0.376
[11], 1000 nM	–	0.494
[11], 3000 nM	–	0.464
[12], 4.1 nM	–	0.567
[12], 4.11523 nM	–	0.579
[12], 12.3 nM	–	0.474
[12], 12.34567901 nM	–	0.507
[12], 37 nM	–	0.421
[12], 37.037 nM	–	0.402
[12], 111.1 nM	–	0.347
[12], 111.1111111 nM	–	0.456
[12], 333.3 nM	–	0.332
[12], 333.333 nM	–	0.347
[12], 1000 nM	–	0.2728
[12], 3000 nM	–	0.245
